# Experimental data: ChEMBL document CHEMBL1149062, “A Sesquiterpene Quinone and Hydroquinone from the Southern Australian Marine Sponge, Thorecta choanoides” (J Nat Prod, 1994)
# The source made the active and inactive calls. The rule behind the calls is not given here.
# System: Human immunodeficiency virus
# Assay: Antiviral activity against HIV assessed as inhibition of viral replication
# Type: functional, organism-based
row,Structure (SMILES),Activity
1,COC1=CC(=O)C=C(C/C=C(\C)CC/C=C(\C)CCC=C(C)C)C1=O,inactive
2,COc1cc(O)cc(C/C=C(\C)CC/C=C(\C)CCC=C(C)C)c1O,inactive
